A word on the MIC: it is the lowest concentration found to suppress growth.

The structures appear in SMILES notation. Where two headings read alike, the source gives them in different places. Bounds are passed on as bounds.

Data on 10 compounds can be found in patent US12084445B2, “Broad-spectrum carbapenems” (VenatoRx Pharmaceuticals, Inc., priority 2018, dated 2024).

Holding throughout (assay type): cell-based
The test system of assay [1] is E. coli ATCC 25922 (wild-type/QC strain). Briefly: broth microdilution MIC assay, E. coli ATCC 25922. As to conditions: Escherichia coli, ATCC25922, E. coli 25922, read-out: E. coli 25922 MIC. The gist of the method: (§1)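 CLSI broth microdilution in cation-supplemented Mueller-Hinton broth, starting inoculum 5×10^5 CFU/mL, 2-fold compound dilutions. Incubation 16-20 h at 37 °C; MIC read visually as the lowest concentration with no growth.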
Background: Dilution methods test growth across graded concentrations, often in twofold steps.

Assay [2] relates to S. aureus ATCC 33591 (methicillin-resistant). Description: broth microdilution MIC assay, S. aureus ATCC 33591. As to conditions: Staphylococcus aureus. The method, boiled down: as §1
In assay [3] the test system is P. aeruginosa ATCC 27853 (wild-type/QC strain). Description: broth microdilution MIC assay, P. aeruginosa ATCC 27853. As to conditions: Pseudomonas aeruginosa, ATCC27853, P. aeruginosa 27853, read-out: P. aeruginosa 27853 MIC. The gist of the method:
as §1

In assay [4] the test system is clinical isolate P. aeruginosa PA 8. Description: broth microdilution MIC assay, P. aeruginosa PA 8. The conditions noted are these: Pseudomonas aeruginosa, P. aeruginosa PA8. The method, boiled down: as §1
Assay [5] has as its system S. aureus ATCC 29213 (methicillin sensitive). Description: broth microdilution MIC assay, S. aureus ATCC 29213. The conditions noted are these: Staphylococcus aureus, ATCC 29213 / MSSA; Table 3; S. aureus 29213 (MSSA); read-out: S. aureus 29213 (MSSA) MIC. The method, then: (§2) To determine the ability of test compounds to potentiate the inhibition of the growth of bacterial strains, classic cell-based broth microdilution MIC assays were employed. MIC assays are performed according to CLSI methods except where otherwise noted (CLSI, 2011 and CLSI, 2009). The reference strains S. aureus ATCC 29213 (methicillin sensitive), S. aureus ATCC 33591 (methicillin-resistant), E. coli ATCC 25922 (wild-type/QC strain), P. aeruginosa ATCC 27853 (wild-type/QC strain), and the clinical isolate P. aeruginosa PA 8 were used to determine the ability of the exemplary carbapenem compounds to inhibit bacterial growth. An expanded panel of methicillin resistance S. aureus (MRSA) and Pseudomonas was also used to determine the ability of exemplary carbapenem compounds to inhibit bacterial growth across a broader representation of those species. To determine activity in MRSA and in addition to S. aureus ATCC 33591, S. aureus USA 300, USA 400 and USA 600, some of the most common clones found to cause human infection, were also used. To further gauge the impact on the carbapenem compounds due to various resistance mechanisms in Pseudomonas, the following strains were included: P. aeruginosa 35151 (hyper-permeable strain), P. aeruginosa AmexAB-OprM (an efflux pump knockout), and P. aeruginosa PA 3 (a clinical isolate of reduced carbapenem susceptibility). Briefly, cryo-preserved bacterial cultures of clinical strains are streaked for isolation on appropriate agar medium, in this case Mueller Hinton II agar. Following incubation to allow formation of colonies, these plates are sealed with parafilm and stored refrigerated for up to two weeks. For preparation of assay inocula and to ensure low variability, at least 5 colonies are picked from the agar plates with an inoculating loop and aseptically transferred to a culture tube containing 3 mL of Mueller-Hinton Broth (supplemented with divalent cations to required levels based on Manufacturers' specification). The broth culture is grown for 3-5 hours at 37° C. with shaking at 200 rpm. Meanwhile, 2-fold serial dilutions of test compounds are conducted in a 96 well plate with a final volume of 75 μL per well at 2-fold the final desired concentration. After the dilution plates are set up the growing cultures are then diluted in a cuvette containing MH II broth and the optical density is measured at 600 nm. Inocula are diluted such that 75 μL of this culture in Mueller-Hinton Broth results in a starting bacterial concentration of 5×10^5 CFU/mL when added to the dilution plates. The plates are incubated 16-20 hours at 37° C. The MIC is read visually as the lowest concentration well with no bacterial growth.
(§3) Representative results are shown in Tables 3, 4, and 5 where A represents an MIC>32 μg/mL, B represents an MIC between 8 and 32 μg/mL inclusive, C represents an MIC between 1 and 4 μg/mL inclusive, and D represents an MIC of <1 μg/mL. NT=Not Tested.

In assay [6] the test system is P. aeruginosa 35151 (hyper-permeable strain). Description: broth microdilution MIC assay, P. aeruginosa 35151. The conditions noted are these: Pseudomonas aeruginosa, read-out: P. aeruginosa 35151 MIC. The gist of the method: as §1
Assay [7] has as its system P. aeruginosa PA 3 (a clinical isolate of reduced carbapenem susceptibility). Description: broth microdilution MIC assay, P. aeruginosa PA 3. The conditions noted are these: Pseudomonas aeruginosa; Table 5; P. aeruginosa PA3. The method, then:
as §2, §3

Assay [8] deals with S. aureus USA 300. Briefly: broth microdilution MIC assay, S. aureus USA 300. The conditions noted are these: Staphylococcus aureus; Table 4; S. aureus USA300; read-out: S. aureus USA300 MIC. The gist of the method:
as §1

Assay [9] deals with S. aureus USA600. Briefly: broth microdilution MIC assay, S. aureus USA 600. As to conditions: Staphylococcus aureus; Table 4; S. aureus USA600; read-out: S. aureus USA600 MIC. The gist of the method: as §1
Assay [10] deals with P. aeruginosa ΔmexAB-OprM (an efflux pump knockout). Briefly: broth microdilution MIC assay, P. aeruginosa ΔmexAB-OprM. The conditions noted are these: Pseudomonas aeruginosa, 20 h, read-out: P. aeruginosa ΔmexAB-OprM MIC. The method, boiled down: as §1
[11] abbreviates: ATCC 33591 / MRSA, Table 3, S. aureus 33591 (MRSA), read-out: S. aureus 33591 (MRSA) MIC.
The mark [12] stands for this setting: ATCC33591, Table 4, S. aureus 33591, read-out: S. aureus 33591 MIC.

Turning to `C[C@@H](O)[C@H]1C(=O)N2C(C(=O)O)=C(S[C@@H]3CCN(Cc4ccncc4)C3)[C@H](C)[C@H]12` [Example 9, (4R,5S,6S)-6-((R)-1-hydroxyethyl)-4-methyl-7-oxo-3-(((R)-1-(pyridin-4-ylmethyl)pyrrolidin-3-yl)thio)-1-azabicyclo[3.2.0]hept-2-ene-2-carboxylic acid], the MIC in [1] (Table 3) was below 1 µg/mL; in assay [2] (setting [11]), 8 to 32 µg/mL; in assay [3] (Table 3) it was 8 to 32 µg/mL; in [4] (Table 3) it was 8 to 32 µg/mL; in [5], below 1 µg/mL.

Take `C[C@@H](O)[C@H]1C(=O)N2C(C(=O)O)=C(S[C@@H]3CCN(CCC4CCNCC4)C3)[C@H](C)[C@H]12` [Example 11, (4R,5S,6S)-6-((R)-1-hydroxyethyl)-4-methyl-7-oxo-3-(((R)-1-(2-(piperidin-4-yl)ethyl)pyrrolidin-3-yl)thio)-1-azabicyclo[3.2.0]hept-2-ene-2-carboxylic acid]: the minimal inhibitory concentration (MIC) is below 1 µg/mL in assay [1] (Table 3); 1 to 4 µg/mL in assay [2] (setting [11]); 1 to 4 µg/mL in assay [3] (Table 3); 1 to 4 µg/mL in [4] (Table 3); below 1 µg/mL in assay [5].

On to `CNCc1ccc(CN2CC[C@@H](SC3=C(C(=O)O)N4C(=O)[C@H]([C@@H](C)O)[C@H]4[C@H]3C)C2)cc1` [Example 19, (4R,5S,6S)-6-((R)-1-hydroxyethyl)-4-methyl-3-(((R)-1-(4-((methylamino)methyl)benzyl)pyrrolidin-3-yl)thio)-7-oxo-1-azabicyclo[3.2.0]hept-2-ene-2-carboxylic acid], for which the minimal inhibitory concentration (MIC) in [1] (Table 3) is below 1 µg/mL; in assay [2] (setting [11]), 8 to 32 µg/mL; in assay [3] (Table 3), 1 to 4 µg/mL; in assay [4] (Table 3), 1 to 4 µg/mL; in [5], 1 to 4 µg/mL.

Regarding `CN[C@H]1CC[C@@H](CN2CC[C@@H](SC3=C(C(=O)O)N4C(=O)[C@H]([C@@H](C)O)[C@H]4[C@H]3C)C2)CC1` [Example 22, (4R,5S,6S)-6-((R)-1-hydroxyethyl)-4-methyl-3-(((R)-1-(((1s,4S)-4-(methylamino)cyclohexyl)methyl)pyrrolidin-3-yl)thio)-7-oxo-1-azabicyclo[3.2.0]hept-2-ene-2-carboxylic acid], the MIC in assay [1] (Table 3) was below 1 µg/mL; in assay [2] (setting [11]), 8 to 32 µg/mL; in assay [3] (Table 3), 1 to 4 µg/mL; in assay [4] (Table 3), 1 to 4 µg/mL; in assay [5] it was 1 to 4 µg/mL.

On to `C[C@@H](O)[C@H]1C(=O)N2C(C(=O)O)=C(S[C@@H]3CCN([C@H]4CC[C@H](N)CC4)C3)[C@H](C)[C@H]12` [Example 24, (4R,5S,6S)-3-(((R)-1-((1s,4S)-4-aminocyclohexyl)pyrrolidin-3-yl)thio)-6-((R)-1-hydroxyethyl)-4-methyl-7-oxo-1-azabicyclo[3.2.0]hept-2-ene-2-carboxylic acid], for which the MIC in [1] (Table 3) is below 1 µg/mL; in assay [2] (setting [11]), 8 to 32 µg/mL; in assay [3] (Table 3), 1 to 4 µg/mL; in assay [4] (Table 3), 8 to 32 µg/mL; in [5], 1 to 4 µg/mL.

As to `C[C@@H](O)[C@H]1C(=O)N2C(C(=O)O)=C(S[C@@H]3CCCN(CC4CCNCC4)C3)[C@H](C)[C@H]12` [Example 43, (4R,5S,6S)-6-((R)-1-hydroxyethyl)-4-methyl-7-oxo-3-(((R)-1-(piperidin-4-ylmethyl)piperidin-3-yl)thio)-1-azabicyclo[3.2.0]hept-2-ene-2-carboxylic acid], the MIC in [1] (Table 4) is below 1 µg/mL; in assay [6], below 1 µg/mL; in assay [7], above 32 µg/mL; in assay [8] it was 1 to 4 µg/mL; in assay [2] (setting [12]), 8 to 32 µg/mL; in assay [3] (Table 5), 8 to 32 µg/mL. In addition, the minimum inhibitory concentration (MIC) was above 32 µg/mL in assay [4] (Table 5), 1 to 4 µg/mL in [9] and 8 to 32 µg/mL in assay [10].

`C[C@@H](O)[C@H]1C(=O)N2C(C(=O)O)=C(S[C@@H]3CCN(C[C@@H]4CNCCO4)C3)[C@H](C)[C@H]12` [Example 49, (4R,5S,6S)-6-((R)-1-hydroxyethyl)-4-methyl-3-(((R)-1-(((S)-morpholin-2-yl)methyl)pyrrolidin-3-yl)thio)-7-oxo-1-azabicyclo[3.2.0]hept-2-ene-2-carboxylic acid]: the MIC in assay [1] (Table 4) is below 1 µg/mL; in [6], below 1 µg/mL; in assay [7], 8 to 32 µg/mL; in [8], 1 to 4 µg/mL; in assay [2] (setting [12]) it was 8 to 32 µg/mL; in [3] (Table 5) it was 8 to 32 µg/mL. Moreover, the MIC in assay [4] (Table 5), in assay [9] and in [10] was 1 to 4 µg/mL throughout.

As to `C[C@@H](O)[C@H]1C(=O)N2C(C(=O)O)=C(S[C@@H]3CCN(C[C@H]4CNCCO4)C3)[C@H](C)[C@H]12` [Example 50, (4R,5S,6S)-6-((R)-1-hydroxyethyl)-4-methyl-3-(((R)-1-(((R)-morpholin-2-yl)methyl)pyrrolidin-3-yl)thio)-7-oxo-1-azabicyclo[3.2.0]hept-2-ene-2-carboxylic acid], the minimal inhibitory concentration (MIC) was below 1 µg/mL in assay [1] (Table 4); below 1 µg/mL in assay [6]; 8 to 32 µg/mL in [7]; 1 to 4 µg/mL in [8]; 1 to 4 µg/mL in [2] (setting [12]); 1 to 4 µg/mL in [3] (Table 5). Also, the minimum inhibitory concentration (MIC) in assay [4] (Table 5), in assay [9] and in assay [10] was 1 to 4 µg/mL in each case.

On to `C[C@@H](O)[C@H]1C(=O)N2C(C(=O)O)=C(S[C@@H]3CCN(C[C@H]4CCNC4)C3)[C@H](C)[C@H]12` [Example 51, (4R,5S,6S)-6-((R)-1-hydroxyethyl)-4-methyl-7-oxo-3-(((R)-1-(((S)-pyrrolidin-3-yl)methyl)pyrrolidin-3-yl)thio)-1-azabicyclo[3.2.0]hept-2-ene-2-carboxylic acid], for which the MIC in [1] (Table 4) is below 1 µg/mL; in assay [6] it was below 1 µg/mL; in [7] it was 8 to 32 µg/mL; in assay [8], 1 to 4 µg/mL; in assay [2] (setting [12]) it was 1 to 4 µg/mL; in [3] (Table 5), 1 to 4 µg/mL. The minimal inhibitory concentration (MIC) in assay [4] (Table 5), in [9] and in assay [10] was 1 to 4 µg/mL throughout.

As to `C[C@@H](O)[C@H]1C(=O)N2C(C(=O)O)=C(S[C@@H]3CCN(C[C@@H]4CCNC4)C3)[C@H](C)[C@H]12` [Example 53, (4R,5S,6S)-6-((R)-1-hydroxyethyl)-4-methyl-7-oxo-3-(((R)-1-(((R)-pyrrolidin-3-yl)methyl)pyrrolidin-3-yl)thio)-1-azabicyclo[3.2.0]hept-2-ene-2-carboxylic acid], the MIC in assay [1] (Table 4) was below 1 µg/mL; in [6] it was below 1 µg/mL; in [7], 8 to 32 µg/mL; in [8], 1 to 4 µg/mL; in [2] (setting [12]) it was 1 to 4 µg/mL; in assay [3] (Table 5), 1 to 4 µg/mL. The minimum inhibitory concentration (MIC) in assay [4] (Table 5), in assay [9] and in assay [10] was 1 to 4 µg/mL in each case.
